Test results: patent publication US20120065196A1, “AMIDE COMPOUNDS” (priority 2006, published 2012)

Molecular target: T1, human DGAT1 (Homo sapiens, UniProt O75907)
T1 construct: (N); made in house; host or cells: Sf9 insect cells infected with recombinant baculovirus BAC-DGAT1; microsome fraction
T1 sequence (O75907 1-488): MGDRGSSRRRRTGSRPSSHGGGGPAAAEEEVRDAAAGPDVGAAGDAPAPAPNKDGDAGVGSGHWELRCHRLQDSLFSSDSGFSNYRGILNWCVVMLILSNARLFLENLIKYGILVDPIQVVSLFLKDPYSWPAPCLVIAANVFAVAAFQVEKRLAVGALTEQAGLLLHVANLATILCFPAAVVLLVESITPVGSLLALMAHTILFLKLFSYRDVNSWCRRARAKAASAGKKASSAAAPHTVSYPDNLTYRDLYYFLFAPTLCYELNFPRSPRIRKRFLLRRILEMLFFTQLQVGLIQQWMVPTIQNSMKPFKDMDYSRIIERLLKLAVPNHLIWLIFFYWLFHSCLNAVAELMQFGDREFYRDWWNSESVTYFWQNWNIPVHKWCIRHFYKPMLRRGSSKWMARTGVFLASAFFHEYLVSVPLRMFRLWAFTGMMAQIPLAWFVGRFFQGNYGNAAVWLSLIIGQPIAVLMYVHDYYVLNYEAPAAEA
Assay: Determination of DGAT inhibitory activity (triglyceride synthesis with DGAT1 high expression Sf9 microsome)
Assay type: biochemical
Settings: 25 μM dioleoylglycerol, 25 μM [14C]-Oleoyl-CoA, 32° C., 20 min, read-out: hDGAT1 IC50
Experimental: Human DGAT1 gene was cloned by PCR using human adipocyte cDNA (Clontech, QUICK-Clone cDNA, human fat cell, cat #637220) as a template and, based on the DGAT1 gene information reported by Case, S. et al. (Proc. Natl. Acad. Sci. U.S.A. 95 (22), 13018-13023 (1998)), a nucleotide sequence (245-1711 of Genbank Accession No. NM_012079) encoding DGAT1 was amplified with the following PCR primer. The primer nucleotide sequence is shown below.
The PCR reaction was conducted using a KOD-plus kit (TOYOBO). The obtained PCR product was electrophoresed on agarose gel (1%), the DNA fragment amplified by PCR was recovered from the gel, and then digested with restriction enzymes EcoRI and SpeI. The DNA treated with the restriction enzymes was electrophoresed on agarose gel (1%), and the obtained DNA fragment was recovered and ligated with plasmid pFASTBAC1 (Invitrogen) digested with restriction enzymes EcoRI and SpeI to give expression plasmid pFB-DGAT1. The nucleotide sequence of the inserted fragment was confirmed and found to be identical with the nucleotide sequence of DGAT1 (245-1711 of Genbank Accession No. NM_012079). Furthermore, using BAC-TO-BAC Baculovirus Expression System (Invitrogen), recombinant baculovirus BAC-DGAT1 was prepared.
SF9 cells were sown at 1×10^6 cells/ml on Sf-900II SFM medium (1 L, Invitrogen) containing 10% fetal calf serum (Trace), 50 mg/L gentamicin (Invitrogen) and 0.1% Pluronic F-68 (Invitrogen), and shaking culture was performed using a 2 L volume Erlenmeyer flask at 27° C., 100 rpm. After culturing for 24 hrs, recombinant baculovirus BAC-DGAT1 (6.7 mL) was added, and the mixture was further cultured for 3 days. The culture medium was centrifuged at 2,000 rpm for 5 min to give virus-infected cells. The infected cells were washed with a phosphate buffered saline (Invitrogen), centrifuged under the same conditions, and the cells were preserved at −80° C. The cryopreserved cells were thawed in ice, suspended in buffer A (50 mM Tris buffer (30 mL, pH 7.4) containing 20% glycerol, 0.15 M NaCl) supplemented with Complete Protease Inhibitor (Boehringer), and ruptured 3 times with a Polytron homogenizer (Kinematica) at 20,000 rpm for 30 sec. The Sf9 microsome fractions were obtained by a conventional method and cryopreserved at −80° C. as a DGAT1 high expression Sf9 microsome.
As a DGAT1 reaction buffer, a solution having a composition of 100 mM Tris-HCl (pH 7.5), 250 mM sucrose, 150 mM MgCl2, 0.01% bovine serum albumin (BSA) was used. Using this buffer, a given concentration of the test compound and a composition (100 μl) of 25 μM dioleoylglycerol, 25 μM [^14C]-Oleoyl-CoA, 5 μg protein/ml DGAT1 high expression Sf9 microsome, and 1% acetone were subjected to a triglyceride synthesis reaction at 32° C. for 20 min. A mixture of 300 μL of chloroform:methanol (=1:2) was added to the reaction mixture to quench the reaction. The reaction mixture was sufficiently mixed and distilled water (200 μL) was added to partition the mixture between a chloroform layer (lower layer) and an aqueous layer (upper layer). The chloroform layer (50 μL) was spotted on a thin layer chromatography silica gel plate (TLC plate, Merck) and developed with a solvent (n-hexane:diethyl ether:ethyl acetate:acetic acid=255:30:15:0.6). The developed TLC plate was dried, contacted with a BAS imaging plate (manufactured by FUJIFILM) and measured with BAS2500 (manufactured by FUJIFILM) 16 hr later to numerically show the amount of [^14C]-triglyceride (TG amount) produced during the reaction. The inhibitory rate was calculated by the following formula:
Inhibitory rate (%)=(1−(TG amount with addition of test compound−blank TG amount)/(control TG amount−blank TG amount))×100 […]

IC50	Compound
10 to 100 nM	O=C(NCCNC(=O)C1CCc2c(cnn2-c2ccccc2)C1)c1cn(-c2ccccc2)nc1C(F)(F)F (stereo not shown) [Example E179, 1-phenyl-N-(2-(1-phenyl-3-(trifluoromethyl)-1H-pyrazole-4-carboxamido)ethyl)-4,5,6,7-tetrahydro-1H-indazole-5-carboxamide]
10 to 100 nM	O=C(NCCNC(=O)N1CCC(C(=O)c2ccccc2)C1)c1cn(-c2ccccc2)nc1C(F)(F)F (stereo not shown) [Example E189, N-(2-(3-benzoylpyrrolidine-1-carboxamido)ethyl)-1-phenyl-3-(trifluoromethyl)-1H-pyrazole-4-carboxamide]
1000 to 10000 nM	CC(C)C1CN(C(=O)NCCNC(=O)c2cn(-c3ccccc3)nc2C(F)(F)F)CC1C(=O)c1ccccc1 (stereo not shown) [Example E193, N-(2-(3-benzoyl-4-isopropylpyrrolidine-1-carboxamido)ethyl)-1-phenyl-3-(trifluouromethyl)-1H-pyrazole-4-carboxamide]
10 to 100 nM	O=C(NCCNC(=O)[C@H]1CC[C@H](c2n[nH]c(=O)o2)CC1)c1cn(-c2ccccc2)nc1C(F)(F)F [Example E197, N-(2-(trans-4-(5-oxo-4,5-dihydro-1,3,4-oxadiazol-2-yl)cyclohexanecarboxamido)ethyl)-1-phenyl-3-(trifluoromethyl)-1H-pyrazole-4-carboxamide]
100 to 1000 nM	Cn1cnc(-c2ccccc2)c1C1CCN(C(=O)NCCNC(=O)c2cn(-c3ccccc3)nc2C(F)(F)F)CC1 [Example E207, 4-(1-methyl-4-phenyl-1H-imidazol-5-yl)-N-(2-(1-phenyl-3-(trifluoromethyl)-1H-pyrazole-4-carboxamido)ethyl)piperidine-1-carboxamide]
10 to 100 nM	CC(C)(C)c1cnc([C@H]2CC[C@H](C(=O)NCCNC(=O)c3cn(-c4ccccc4)nc3C(F)(F)F)CC2)o1 [Example E214, N-(2-(trans-4-(5-tert-butyloxazol-2-yl)cyclohexanecarboxamido)ethyl)-1-phenyl-3-(trifluoromethyl)-1H-pyrazole-4-carboxamide]
10 to 100 nM	O=C(NCCNC(=O)C1CCc2nc(-c3ccccc3O)sc2C1)c1cn(-c2ccccc2)nc1C(F)(F)F (stereo not shown) [Example E221, 2-(2-hydroxyphenyl)-N-(2-(1-phenyl-3-(trifluoromethyl)-1H-pyrazole-4-carboxamido)ethyl)-4,5,6,7-tetrahydrobenzo[d]thiazole-6-carboxamide]
100 to 1000 nM	CC(C)c1nc(C2CCN(C(=O)NCCNC(=O)c3cn(-c4ccccc4)nc3C(F)(F)F)CC2)no1 [Example E225, 4-(5-isopropyl-1,2,4-oxadiazol-3-yl)-N-(2-(1-phenyl-3-(trifluoromethyl)-1H-pyrazole-4-carboxamido)ethyl)piperidine-1-carboxamide]
10 to 100 nM	CC(C)c1nc([C@H]2CC[C@H](C(=O)NCCNC(=O)c3cn(-c4ccccc4)nc3C(F)(F)F)CC2)no1 [Example E228, N-(2-(trans-4-(5-isopropyl-1,2,4-oxadiazol-3-yl)cyclohexanecarboxamido)ethyl)-1-phenyl-3-(trifluoromethyl)-1H-pyrazole-4-carboxamide]
100 to 1000 nM	O=C(NCCNC(=O)[C@H]1CC[C@H](c2nnc(-c3ccccc3)[nH]2)CC1)c1cn(-c2ccccc2)nc1C(F)(F)F [Example E229, 1-Phenyl-N-(2-(trans-4-(5-phenyl-4H-1,2,4-triazol-3-yl)cyclohexanecarboxamido)ethyl)-3-(trifluoromethyl)-1H-pyrazole-4-carboxamide]
100 to 1000 nM	CC(C)c1nnc([C@H]2CC[C@H](C(=O)NCCNC(=O)c3cn(-c4ccccc4Cl)nc3C(F)(F)F)CC2)o1 [Example E234, 1-(2-chlorophenyl)-N-(2-(trans-4-(5-isopropyl-1,3,4-oxadiazol-2-yl)cyclohexanecarboxamido)ethyl)-3-(trifluoromethyl)-1H-pyrazole-4-carboxamide]
10 to 100 nM	CC(C)c1nc2c(s1)CC(C(=O)NCCNC(=O)c1cn(-c3ccccc3)nc1C(F)(F)F)CC2 (stereo not shown) [Example E242, 2-isopropyl-N-(2-(1-phenyl-3-(trifluoromethyl)-1H-pyrazole-4-carboxamido)ethyl)-4,5,6,7-tetrahydrobenzo[d]thiazole-6-carboxamide]
10 to 100 nM	CC(C)c1nc([C@H]2CC[C@H](C(=O)NCCNC(=O)c3cn(-c4ccccc4Cl)nc3C(F)(F)F)CC2)no1 [Example E257, 1-(2-chlorophenyl)-N-(2-(trans-4-(5-isopropyl-1,2,4-oxadiazol-3-yl)cyclohexanecarboxamido)ethyl)-3-(trifluoromethyl)-1H-pyrazole-4-carboxamide]
10 to 100 nM	CC(C)c1nc([C@H]2CC[C@H](C(=O)NCCNC(=O)c3cn(-c4ccccc4F)nc3C(F)(F)F)CC2)no1 [Example E260, 1-(2-fluorophenyl)-N-(2-(trans-4-(5-isopropyl-1,2,4-oxadiazol-3-yl)cyclohexanecarboxamido)ethyl)-3-(trifluoromethyl)-1H-pyrazole-4-carboxamide]
10 to 100 nM	CC(C)c1nnc([C@H]2CC[C@H](C(=O)NCCNC(=O)c3cn(-c4ccccc4F)c4ccccc34)CC2)o1 [Example E265, 1-(2-fluorophenyl)-N-(2-(trans-4-(5-isopropyl-1,3,4-oxadiazol-2-yl)cyclohexanecarboxamido)ethyl)-1H-indole-3-carboxamide]
1000 to 10000 nM	CN(CCc1ccncc1)C(=O)NCCNC(=O)c1cn(-c2ccccc2)nc1C(F)(F)F [Example F1, N-(2-(3-Methyl-3-(2-(pyridin-4-yl)ethyl)ureido)ethyl)-1-phenyl-3-(trifluoromethyl)-1H-pyrazole-4-carboxamide]
